From patent US9221875B2, “Amphiphilic peptides for treatment of keratitis” (Agency for Science, Technology and Research, priority 2013, dated 2015)
Converted amounts (≈) assume the structure as drawn. Like-named read-outs stand apart in the source and are kept apart here. Square brackets hold non-standard residues; d marks the D form. Peptide text beside a SMILES is read from it.

Experiments:
P. aeruginosa [1] = settings: 18 h
S. aureus [2] = settings: 18 h
C. albicans [3] = settings: 42 h
E. coli [4] = settings: 18 h
[5] = tested on: 5 microorganisms tested (S. epidermidis, S. aureus, E. coli, P. aeruginosa, C. albicans); assay: Mean MIC over the panel and selectivity index (Example 1); format: cell-based
Method: Red blood cells suspension incubated with PBS was used as negative control.

S. epidermidis [6] = settings: 18 h
in vitro [7] = format: cell-based; settings: rat, NR8383 macrophage cells
Method: (§1) HeLa, HDF and NR8383 cells were respectively seeded at a densities of 1×10^4, 1×10^4 and 4×10^4 cells per well of a 96-well plate. Following overnight incubation, the cells were treated with 3.9 to 500 mg L^−1 of (IRIK)3-NH2 (SEQ ID NO: 21) and (VRVK)3-NH2 (SEQ ID NO: 20) for 24 h. For the adherent HeLa and HDF cell lines, the incubation media in each well were replaced with 100 μL of growth media and 10 μL of MTT solution (5 mg·ml^−1 in PBS). The cells were further incubated for 4 h at 37° C. according to the manufacturer's directions. Resultant formazan crystals formed in each well were solubilized using 150 μL of DMSO upon removal of growth media. A 100 μL aliquot from each well was then transferred to a new 96-well plate for determination of absorbance using a microplate spectrophotometer at wavelengths of 550 nm and 690 nm. Relative cell viability was expressed as [(A550−A690)sample/(A550−A690)control]×100%.
For the semi-adherent NR8383 cells, 20 μL of […]-BLUE® reagent was added into each well after treatment and the plate was incubated for a further 4 h. The fluorescence intensity readings of the wells were determined at excitation wavelength of 560 nm and emission wavelength of 590 nm using a microplate reader. […]

in vitro [8] = format: cell-based; settings: human
Method: as §1

[9] = tested on: LPS-stimulated NO production in NR8383 rat macrophage cell line; assay: Endotoxin neutralization assay (Griess nitrite); format: cell-based; settings: 125 mg L^−1 peptide, 100 ng mL^−1 LPS, 18 h
Method: Untreated cells and cells that were stimulated with LPS alone served as the […] controls, respectively. The amount of NO produced was estimated by quantifying the concentration of the stable NO metabolite nitrite in the isolated supernatant fractions using the Griess reagent (1% sulphanilamide, 0.1% N-1-napthylethylenediamine dihydrochloride, 5% phosphoric acid) according to the manufacturer's protocol. The absorbance was measured at 540 nm and nitrite concentrations were determined using a standard reference curve prepared from known concentrations of NaNO2 solutions.

S. aureus [10] = format: cell-based, Staphylococcus aureus; settings: passage 20
C. neoformans = assay: MBC against clinical isolates; format: cell-based; settings: clinical isolate
E. coli [11] = settings: 18 h; remark: listed apart in the source
[12] = tested on: intracellular S. aureus in RAW264.7 mouse macrophages; format: cell-based, Staphylococcus aureus; settings: intracellular in RAW264.7 mouse macrophages, 8 h
Method: RAW264.7 cells were seeded at a density of 4×10^5 per well of a 12-well plate. Following an overnight incubation, the cells were infected for 1 h with 13.3 μL of processed bacteria (3.0×10^8 CFU mL^−1) to achieve a 10:1 multiplicity of infection. The cells were then rinsed twice with 1×PBS and incubated with 1 mL of fresh media containing 50 μg mL^−1 gentamicin for 45 min to eliminate extracellular bacteria. The media in each well were removed and the infected cells were incubated with fresh media containing 10% (by volume) water or various concentrations of IK8-all D (2, 3.9, 7.8, 15.6 and 31.3 mg L^−1) for up to 4 and 8 h. At the respective time points, the infected cells were trypsinized, rinsed twice with PBS and lyzed with 800 μL of sterile water with incubation at room temperature for 10 min, followed by 5 min sonication. The intracellular bacteria count was determined by plating serially diluted cultures onto LB agar and enumerated after 24 h.

in vitro [13] = format: cell-based; settings: mouse, RAW264.7 macrophage cells
Method: RAW264.7 and WI-38 cells were respectively seeded at a density of 1.5×10^4 and 1×10^4 per well of a 96-well plate. Following overnight incubation, the cells were treated with 1.0 to 125 mg L^−1 of IK8-all D for 48 h. Subsequently, the incubation media in each well were replaced with 100 μL of growth media and 10 μL of MTT solution (5 mg·ml^−1 in PBS) and the cells were incubated for 4 h at 37° C. according to the manufacturer's directions. Resultant formazan crystals formed in each well were solubilized using 150 μL of DMSO upon removal of growth media. A 100 μL aliquot from each well was then transferred to a new 96-well plate for determination of absorbance using a microplate spectrophotometer at wavelengths of 550 nm and 690 nm. Relative cell viability was expressed as [(A550−A690)sample/(A550−A690)control]×100%.

E. coli [14] = format: cell-based, Escherichia coli; settings: end of the experiment (up to 20 passages)
[15] = tested on: Vancomycin-resistant Enterococci; settings: clinical isolate
[16] = tested on: S. aureus and P. aeruginosa; assay: FE-SEM analysis of treated bacteria (Example 2); format: cell-based, Staphylococcus aureus, Pseudomonas aeruginosa; settings: 125 mg L^−1, 2 h
Method: S. aureus and P. aeruginosa suspensions at ˜3×10^8 CFU mL^−1 (100 μL) were separately incubated with an equal volume of broth containing final concentrations of 10% (by volume) of HPLC water or 125 mg L^−1 of IK8-all D in a 96 well-plate for 2 h. Eight replicates of each condition was pooled into a microfuge tube, pelleted down at 4000 rpm for 5 min, and rinsed twice with PBS. The samples were then fixed with 4% formaldehyde at room temperature for 20 min, followed by rinsing with deionized water. Dehydration of the cells was performed using a series of graded ethanol solutions (35, 50, 75, 90, 95 and 100%). The samples were mounted on a copper tape, allowed to air-dry and sputter coated with platinum for imaging using a FE-SEM setup (JEOL JSM-7400F, Japan).

rabbit red blood cells = format: cell-based; settings: red cells of rabbit, 1 h
S. aureus [17] = settings: 18 h; remark: listed apart in the source
S. epidermidis [18] = settings: 18 h; remark: listed apart in the source
[19] = tested on: clinically isolated Mycobacterium tuberculosis
P. aeruginosa [20] = assay: MBC against clinical isolates; format: cell-based; settings: clinical isolate
P. aeruginosa [21] = settings: 18 h; remark: listed apart in the source
trypsin and proteinase K = format: in vitro ADME
Method: One of the major factors limiting the clinical utility of AMPs lies in their instability to rapid degradation by proteases which are present abundantly in biological fluids and/or secreted by microorganisms. In order to evaluate the proteolytic stability of the designed β-sheet forming peptides, the D- and L-isoforms of the n=2 peptide sequence (IK8-all D or IK8-all L, respectively) were treated with the broad spectrum serine proteases, trypsin and proteinase K, for 6 h and evaluated their antimicrobial activities against S. aureus, E. coli and P. aeruginosa. […] The structural integrity of synthetic peptides following treatment with both proteases was also evaluated using MALDI-TOF mass spectroscopy. […] The cleavage sites of both enzymes for the IK8-all L peptide are illustrated in FIG. 19a with the mass spectra peaks assigned to the major fragments.

C. albicans [22] = tested on: C. albicans
[23] = tested on: five microorganisms tested (S. epidermidis, S. aureus, E. coli, P. aeruginosa, C. albicans); format: cell-based; settings: 18 h
Method: After 18 h treatment of microorganisms with various concentrations of peptide (0.5×MIC, MIC and 2×MIC), the respective samples were subjected to a series of ten-fold dilutions and plated onto LB agar plates. The plates were then incubated overnight and counted for colony-forming units. A sample containing microbes treated with 10% (by volume) water was used as a control. Results are expressed as Log(CFU/mL) and as % Kill=[(cell count of control−survivor count of peptide-treated microbes)/cell count of control]×100.

[24] = tested on: 5 microorganisms tested (S. epidermidis, S. aureus, E. coli, P. aeruginosa, C. albicans); assay: Mean MIC over the panel and selectivity index (Example 2)
[25] = tested on: clinically isolated drug resistant microorganisms; assay: MBC comparison over clinical isolates; format: cell-based; settings: antibacterial activities
[26] = tested on: Methicillin-resistant S. aureus; settings: clinical isolate

With CC[C@H](C)[C@H](N)C(=O)N[C@@H](CCCNC(=N)N)C(=O)N[C@H](C(=O)N[C@@H](CCCCN)C(=O)N[C@H](C(=O)N[C@@H](CCCNC(=N)N)C(=O)N[C@H](C(=O)N[C@@H](CCCCN)C(=O)N[C@H](C(=O)N[C@@H](CCCNC(=N)N)C(=O)N[C@H](C(=O)N[C@@H](CCCCN)C(N)=O)[C@@H](C)CC)[C@@H](C)CC)[C@@H](C)CC)[C@@H](C)CC)[C@@H](C)CC [(IRIK)3-NH2] (H-IRIKIRIKIRIK-NH2; N-terminus assumed) the “MIC P. aeruginosa” value (P. aeruginosa [1]) was 500 µg/mL (≈ 323 µM), the “MIC S. aureus” value (S. aureus [2]) was 62.5 µg/mL (≈ 40.3 µM) and the “MIC C. albicans” value (C. albicans [3]) was 125 µg/mL (≈ 80.7 µM). The “MIC E. coli” value (E. coli [4]) was 125 µg/mL (≈ 80.7 µM), the “GM, geometric mean of MIC values for the 5 microorganisms tested” value (from here on “GM, geometric mean of MIC values”) [5] was 162.7 µg/mL and the “MIC S. epidermidis” value (S. epidermidis [6]) was 1.0 µg/mL (≈ 0.646 µM). For the same molecule, the viability at 24 h, 125 µg/mL (in vitro [7]) was greater than 80%, the viability at 24 h, 125 µg/mL (in vitro [8]; HDF dermal fibroblast cells) was greater than 80% and the “nitrite concentration, LPS-stimulated NO production” value [9] was “reduced to the control level”.
In the case of CC(C)[C@H](N)C(=O)N[C@@H](CCCNC(=N)N)C(=O)N[C@H](C(=O)N[C@@H](CCCCN)C(=O)N[C@H](C(=O)N[C@@H](CCCNC(=N)N)C(=O)N[C@H](C(=O)N[C@@H](CCCCN)C(=O)N[C@H](C(=O)N[C@@H](CCCNC(=N)N)C(=O)N[C@H](C(=O)N[C@@H](CCCCN)C(N)=O)C(C)C)C(C)C)C(C)C)C(C)C)C(C)C [(VRVK)3-NH2] (H-VRVKVRVKVRVK-NH2; N-terminus assumed), the “MIC P. aeruginosa” value (P. aeruginosa [1]) is reported as 62.5 µg/mL (≈ 42.7 µM), the “MIC S. aureus” value (S. aureus [2]) is reported as 62.5 µg/mL (≈ 42.7 µM) and the “MIC C. albicans” value (C. albicans [3]) is reported as 31.3 µg/mL (≈ 21.4 µM). The “MIC E. coli” value (E. coli [4]) was 15.6 µg/mL (≈ 10.6 µM), the “GM, geometric mean of MIC values” value [5] was 34.6 µg/mL and the “MIC S. epidermidis” value (S. epidermidis [6]) was 1.0 µg/mL (≈ 0.683 µM). It also gave a viability at 24 h, 250 µg/mL (in vitro [7]) greater than 53%, a viability at 24 h, 250 mg/L (in vitro [8]) of 30% and a viability at 24 h, 250 µg/mL (in vitro [8]; HDF dermal fibroblast cells) greater than 53%.
With CC[C@@H](C)[C@@H](N)C(=O)N[C@H](CCCNC(=N)N)C(=O)N[C@@H](C(=O)N[C@H](CCCCN)C(=O)N[C@@H](C(=O)N[C@H](CCCNC(=N)N)C(=O)N[C@@H](C(=O)N[C@H](CCCCN)C(N)=O)[C@H](C)CC)[C@H](C)CC)[C@H](C)CC [IK8-all D, irikirik-NH2] (H-[dI][dR][dI][dK][dI][dR][dI][dK]-NH2; N-terminus assumed) the “MICn/MIC0, fold increase in MIC” value (S. aureus [10]) was 1, the “MBC C. neoformans” value (C. neoformans) was 7.8 µg/mL (≈ 7.51 µM) and the “MIC E. coli” value (E. coli [11]) was 3.9 µg/mL (≈ 3.76 µM). For the same molecule, the “log reductions in intracellular S. aureus colony counts compared to the control” value [12] was 1.2-1.5 log, the viability at 48 h (in vitro [13]) was greater than 80% and the MICn/MIC0 (E. coli [14]) was 1. The “MBC Vancomycin-resistant Enterococci” value [15] was 3.9 µg/mL (≈ 3.76 µM), the “surface morphology under FE-SEM” value [16] was “significant membrane damage and corrugation” and the “HC10, haemolysis concentration 10%: lowest peptide concentration that induces ≧10% haemolysis” value (rabbit red blood cells) was 1750 mg/L. The “MIC S. aureus” value (S. aureus [17]) was 3.9 µg/mL (≈ 3.76 µM), the “MIC S. epidermidis” value (S. epidermidis [18]) was 2.0 µg/mL (≈ 1.93 µM) and the “MIC M. tuberculosis” value ([19]; strain number 1140) was 15.6 µg/mL (≈ 15 µM). The “MIC M. tuberculosis” value ([19]; strain number 1146) was 15.6 µg/mL (≈ 15 µM), the “MBC P. aeruginosa” value (P. aeruginosa [20]) was 15.6 µg/mL (≈ 15 µM) and the “MIC P aeruginosa” value (P. aeruginosa [21]) was 7.8 µg/mL (≈ 7.51 µM). The “antimicrobial activity after protease treatment” value (trypsin and proteinase K) was “retained its antibacterial activities”, the “structural integrity after protease treatment, MALDI-TOF MS” value (trypsin and proteinase K) was “remained intact” and the “MIC C. albicans” value (C. albicans [22]) was 3.9 µg/mL (≈ 3.76 µM). For the same molecule, the killing efficiencies [23] was greater than 99.9%, the “log reductions in colony counts” value [23]; 2 was “more than 3 log” and the “GM, geometric mean of MIC values” value [24] was 4.3 µg/mL. The “fold reduction in MIC values compared with the L-enantiomer” value ([24]; against the various bacteria) was 2-16 fold, the “folds reduction in MBCs compared with the L-enantiomer” value [25] was 4-8 folds and the “MBC A. baumanni” value (A. baumanni) was 31.3 µg/mL (≈ 30.1 µM). For the same molecule, the “MBC Methicillin-resistant S. aureus” value [26] was 3.9 µg/mL (≈ 3.76 µM).
